In brackets after ≈: the same amount, converted by molar mass.
Tests used:
Experiment in all cases: In vitro antifungal activity, microbroth dilution MIC
Format in all cases: cell-based
[1] = system: Aspergillus furnigatus B. 19119; conditions: A furnigatus B. 19119, RPMI-1640, 35° C., 4 to 48 hours
Outline: (§1)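 Broth microdilution adapted from NCCLS M27, in RPMI-1640 with 0.165 M MOPS, pH 7.0. Yeast or mould inoculum at 2×10^3 CFU/ml was mixed 1:1 with DMSO-derived compound solutions (200 to 0.10 μg/ml before mixing) and incubated at 35 °C for 4 to 48 h. MIC was the concentration showing no growth.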

[2] = system: Candida tropicalis A. 13803; conditions: C. tropicalis A. 13803, RPMI-1640, 35° C., 4 to 48 hours
Outline: as §1

[3] = system: Trichophyton mentagrophytes B. 32663; conditions: T. mentagrophytes B. 32663, RPMI-1640, 35° C., 4 to 48 hours
Outline: as §1

[4] = system: Aspergillus niger A. 16404; conditions: A. niger A. 16404, RPMI-1640, 35° C., 4 to 48 hours
Outline: as §1

[5] = system: Candida albicans IFO. 1385; conditions: C. albicans IFO. 1385, RPMI-1640, 35° C., 4 to 48 hours
Outline: as §1

[6] = system: Torulopsis glabrata B. 16205; conditions: T. glabrata B. 16205, RPMI-1640, 35° C., 4 to 48 hours
Outline: as §1

[7] = system: Candida parapsitosis A. 7330; conditions: C. parapsitosis A. 7330, RPMI-1640, 35° C., 4 to 48 hours
Outline: as §1

Candida albicans C1-2 = conditions: C. albicans C1-2, RPMI-1640, 35° C., 4 to 48 hours
Outline: as §1

[8] = system: Candida albicans A. 10231; conditions: C. albicans A. 10231, RPMI-1640, 35° C., 4 to 48 hours
Outline: as §1

[9] = system: Cryptococcus neoformans A. 34144; conditions: Cry. neoformans A. 34144, RPMI-1640, 35° C., 4 to 48 hours
Outline: as §1

[10] = system: Candida pseudotropicalis K. 11658; conditions: C. pseudotropicalis K. 11658, RPMI-1640, 35° C., 4 to 48 hours
Outline: as §1

[11] = system: Trichophyton mentagrophytes A. 9129; conditions: T. mentagrophytes A. 9129, RPMI-1640, 35° C., 4 to 48 hours
Outline: as §1

[12] = system: Cryptococcus neoformans B. 42419; conditions: Cry. neoformans B. 42419, RPMI-1640, 35° C., 4 to 48 hours
Outline: as §1

Candida krusei K. 11655 = conditions: C. krusei K. 11655, RPMI-1640, 35° C., 4 to 48 hours
Outline: as §1

[13] = system: Cryptococcus neoformans IFM. 40092; conditions: Cry. neoformans IFM. 40092, RPMI-1640, 35° C., 4 to 48 hours
Outline: as §1

Row | SMILES | Minimal inhibitory concentration (MIC) [1] | Minimal inhibitory concentration (MIC) [2] | Minimal inhibitory concentration (MIC) [3] | Minimal inhibitory concentration (MIC) [4] | Minimal inhibitory concentration (MIC) [5] | Minimal inhibitory concentration (MIC) [6] | Minimal inhibitory concentration (MIC) [7] | Minimal inhibitory concentration (MIC) (Candida albicans C1-2) | Minimal inhibitory concentration (MIC) [8] | Minimal inhibitory concentration (MIC) [9] | Minimal inhibitory concentration (MIC) [10] | Minimal inhibitory concentration (MIC) [11] | Minimal inhibitory concentration (MIC) [12] | Minimal inhibitory concentration (MIC) (Candida krusei K. 11655) | Minimal inhibitory concentration (MIC) [13]
1 | Cc1ccc(C=C(F)OCC2COC(Cn3ccnc3)(c3ccc(Cl)cc3Cl)O2)cc1C (stereo not drawn) [Ex. 5] | 6.25 µg/mL (≈ 13.1 µM) | 12.5 µg/mL (≈ 26.2 µM) | 3.13 µg/mL (≈ 6.56 µM) | 6.25 µg/mL (≈ 13.1 µM) | 0.78 µg/mL (≈ 1.63 µM) | 6.25 µg/mL (≈ 13.1 µM) | 12.5 µg/mL (≈ 26.2 µM) | 12.5 µg/mL (≈ 26.2 µM) | 12.5 µg/mL (≈ 26.2 µM) | 3.13 µg/mL (≈ 6.56 µM) | 12.5 µg/mL (≈ 26.2 µM) | 3.13 µg/mL (≈ 6.56 µM) | 3.13 µg/mL (≈ 6.56 µM) | 12.5 µg/mL (≈ 26.2 µM) | 1.56 µg/mL (≈ 3.27 µM)
2 | Cc1cc(C)cc(C=C(F)OCC2COC(Cn3ccnc3)(c3ccc(Cl)cc3Cl)O2)c1 (stereo not drawn) [Ex. 6] | 6.25 µg/mL (≈ 13.1 µM) | 12.5 µg/mL (≈ 26.2 µM) | 3.13 µg/mL (≈ 6.56 µM) | 6.25 µg/mL (≈ 13.1 µM) | 0.78 µg/mL (≈ 1.63 µM) | 6.25 µg/mL (≈ 13.1 µM) | 12.5 µg/mL (≈ 26.2 µM) | 12.5 µg/mL (≈ 26.2 µM) | 6.25 µg/mL (≈ 13.1 µM) | 3.13 µg/mL (≈ 6.56 µM) | 12.5 µg/mL (≈ 26.2 µM) | 3.13 µg/mL (≈ 6.56 µM) | 3.13 µg/mL (≈ 6.56 µM) | 12.5 µg/mL (≈ 26.2 µM) | 1.56 µg/mL (≈ 3.27 µM)
3 | Cc1cc(C)c(C=C(F)OCC2COC(Cn3ccnc3)(c3ccc(Cl)cc3Cl)O2)cc1C (stereo not drawn) [Ex. 7] | 6.25 µg/mL (≈ 12.7 µM) | 25.0 µg/mL (≈ 50.9 µM) | 1.56 µg/mL (≈ 3.17 µM) | 12.5 µg/mL (≈ 25.4 µM) | 1.56 µg/mL (≈ 3.17 µM) | 6.25 µg/mL (≈ 12.7 µM) | 12.5 µg/mL (≈ 25.4 µM) | 12.5 µg/mL (≈ 25.4 µM) | 12.5 µg/mL (≈ 25.4 µM) | 1.56 µg/mL (≈ 3.17 µM) | 12.5 µg/mL (≈ 25.4 µM) | 6.25 µg/mL (≈ 12.7 µM) | 1.56 µg/mL (≈ 3.17 µM) | 12.5 µg/mL (≈ 25.4 µM) | 0.78 µg/mL (≈ 1.59 µM)
4 | COc1cccc(C=C(F)OCC2COC(Cn3ccnc3)(c3ccc(Cl)cc3Cl)O2)c1 (stereo not drawn) [Ex. 8] | 6.25 µg/mL (≈ 13 µM) | 25.0 µg/mL (≈ 52.2 µM) | 1.56 µg/mL (≈ 3.25 µM) | 6.25 µg/mL (≈ 13 µM) | 1.56 µg/mL (≈ 3.25 µM) | 6.25 µg/mL (≈ 13 µM) | 12.5 µg/mL (≈ 26.1 µM) | 25.0 µg/mL (≈ 52.2 µM) | 12.5 µg/mL (≈ 26.1 µM) | 3.13 µg/mL (≈ 6.53 µM) | 12.5 µg/mL (≈ 26.1 µM) | 3.13 µg/mL (≈ 6.53 µM) | 1.56 µg/mL (≈ 3.25 µM) | 6.25 µg/mL (≈ 13 µM) | 0.78 µg/mL (≈ 1.63 µM)
5 | COc1ccc(C=C(F)OCC2COC(Cn3ccnc3)(c3ccc(Cl)cc3Cl)O2)cc1 (stereo not drawn) [Ex. 9] | 6.25 µg/mL (≈ 13 µM) | 25.0 µg/mL (≈ 52.2 µM) | 1.56 µg/mL (≈ 3.25 µM) | 6.25 µg/mL (≈ 13 µM) | 1.56 µg/mL (≈ 3.25 µM) | 6.25 µg/mL (≈ 13 µM) | 12.5 µg/mL (≈ 26.1 µM) | 25.0 µg/mL (≈ 52.2 µM) | 12.5 µg/mL (≈ 26.1 µM) | 3.13 µg/mL (≈ 6.53 µM) | 6.25 µg/mL (≈ 13 µM) | 3.13 µg/mL (≈ 6.53 µM) | 1.56 µg/mL (≈ 3.25 µM) | 6.25 µg/mL (≈ 13 µM) | 0.78 µg/mL (≈ 1.63 µM)
6 | CCOc1ccc(C=C(F)OCC2COC(Cn3ccnc3)(c3ccc(Cl)cc3Cl)O2)cc1 (stereo not drawn) [Ex. 10] | 12.5 µg/mL (≈ 25.3 µM) | 50.0 µg/mL (≈ 101 µM) | 1.56 µg/mL (≈ 3.16 µM) | 50.0 µg/mL (≈ 101 µM) | 1.56 µg/mL (≈ 3.16 µM) | 12.5 µg/mL (≈ 25.3 µM) | 12.5 µg/mL (≈ 25.3 µM) | 12.5 µg/mL (≈ 25.3 µM) | 25.0 µg/mL (≈ 50.7 µM) | 1.56 µg/mL (≈ 3.16 µM) | 6.25 µg/mL (≈ 12.7 µM) | 6.25 µg/mL (≈ 12.7 µM) | 1.56 µg/mL (≈ 3.16 µM) | 25.0 µg/mL (≈ 50.7 µM) | ≦0.10 μg/ml
7 | CC(C)Oc1cccc(C=C(F)OCC2COC(Cn3ccnc3)(c3ccc(Cl)cc3Cl)O2)c1 (stereo not drawn) [Ex. 11] | 12.5 µg/mL (≈ 24.6 µM) | 50.0 µg/mL (≈ 98.5 µM) | 1.56 µg/mL (≈ 3.07 µM) | 50.0 µg/mL (≈ 98.5 µM) | 1.56 µg/mL (≈ 3.07 µM) | 12.5 µg/mL (≈ 24.6 µM) | 6.25 µg/mL (≈ 12.3 µM) | 25.0 µg/mL (≈ 49.3 µM) | 25.0 µg/mL (≈ 49.3 µM) | 1.56 µg/mL (≈ 3.07 µM) | 3.13 µg/mL (≈ 6.17 µM) | 12.5 µg/mL (≈ 24.6 µM) | 1.56 µg/mL (≈ 3.07 µM) | 12.5 µg/mL (≈ 24.6 µM) | 0.39 µg/mL (≈ 0.769 µM)
8 | FC(=Cc1ccc2c(c1)OCO2)OCC1COC(Cn2ccnc2)(c2ccc(Cl)cc2Cl)O1 (stereo not drawn) [Ex. 12] | 1.56 µg/mL (≈ 3.16 µM) | 50.0 µg/mL (≈ 101 µM) | 0.78 µg/mL (≈ 1.58 µM) | 3.13 µg/mL (≈ 6.34 µM) | 1.56 µg/mL (≈ 3.16 µM) | 6.25 µg/mL (≈ 12.7 µM) | 6.25 µg/mL (≈ 12.7 µM) | 25.0 µg/mL (≈ 50.7 µM) | 12.5 µg/mL (≈ 25.3 µM) | 1.56 µg/mL (≈ 3.16 µM) | 3.13 µg/mL (≈ 6.34 µM) | 0.78 µg/mL (≈ 1.58 µM) | 0.78 µg/mL (≈ 1.58 µM) | 6.25 µg/mL (≈ 12.7 µM) | 0.39 µg/mL (≈ 0.791 µM)

— patent US6376497B1, “Antifungal azole derivatives having a fluorinated vinyl group and process for preparing same” (Korea Research Institute of Chemical Technology, priority 1999, dated 2002)
